Results on 32 compounds are retold here after patent US5239083A, “Indole derivatives which inhibit steroid 5α reductase” (Kyowa Hakko Kogyo Co., Ltd., priority 1991, dated 1993).

In one data set the test system is male dd mice. Put plainly: Acute Toxicity Test (oral, mice). Type of data set: in vivo. As to conditions: oral 300 mg/kg, mortality observed seven days after administration. How it is done: Test compounds (300 mg/kg) were orally administered to male dd mice weighing 20±1 g (each group consists of three animals). Minimum lethal dose (MLD) was determined by observing mortality seven days after the administration.

The next data set deals with steroid 5α-reductase. In words: Inhibition effects on steroid 5α-reductase activity (rat prostate enzyme, [4-14C]-testosterone). Type of data set: biochemical, male rats. As to conditions: pH 6.5, 37° C., 20 minutes. How it is done:
The measurements of inhibition effects of test compounds on steroid 5α-reductase activity were performed according to the method described by Liang et al. [J. Biol. Chem., 259, 734 (1984)] as follows.
The prostates from male rats were homogenated in three tissue volumes of 20 mM sodium phosphate buffer (pH 6.5; containing 0.32M sucrose and 1 mM dithiothreitol). The homogenate was centrifuged at 140,000 X g for one hour. The precipitate was suspended in the buffer described above and the suspension was centrifuged at 140,000 X g for one hour. The precipitate was resuspended in the buffer described above and the solution (30-50 mg protein/ml) was used as enzyme in following assay.
[4-^14 C]-testosterone (1.5 nmol), NADPH (75 nmol), the enzyme (1 mg protein) and test compound in a total volume of 0.5 ml of 40 mM sodium phosphate buffer [pH 6.5, containing 1 mM dithiothreitol] was incubated at 37° C. After 20 minutes the enzyme activity was stopped by the addition of 2 ml of ethyl acetate. The mixture was then centrifuged at 1,000 g, for 5 minutes. The ethyl acetate layer was transferred to another tube and evaporated to dryness. The steroids were taken up in 50 μl of ethyl acetate and separated by thin layer chromatography (TLC) on silica gel in a developing solvent (ethyl acetate: cyclohexane=1:1). The radioactivity of testosterone and dihydrotestosterone on the TLC plate was measured by a TLC scanner.

Some results are limits rather than exact numbers.

Consider `CCCCCCn1ccc2cc(/C(C)=C/C(=O)Nc3ccccc3OCCCC(=O)O)ccc21` [Compound 7, 4-{2-[3-(1-hexylindol-5-yl)isocrotonoylamino]phenoxy}butyric acid], for which the “Acute toxicity (MLD), minimum lethal dose” value (“Acute toxicity (MLD)” below) in the data set with male dd mice is given as more than 300 mg/kg.

For `CCCCC(C)n1ccc2cc(/C(C)=C/C(=O)Nc3ccccc3OCCCC(=O)O)ccc21` (stereo not drawn) [Compound 17, 4-{2-[3-[1-(1-methylpentyl)indol-5-yl]isocrotonoylamino]phenoxy}butyrate], the “Acute toxicity (MLD)” value in the data set with male dd mice was more than 300 mg/kg.

`CCCCCC(c1ccccc1)n1ccc2cc(/C(C)=C/C(=O)Nc3ccccc3OCCCC(=O)O)ccc21` (stereo not drawn) [Compound 43, 4-{2-[3-[1-(α-pentylbenzyl)indol-5-yl]isocrotonoylamino]phenoxy}butyric acid]: the “Acute toxicity (MLD)” value with male dd mice is given as more than 300 mg/kg. The “inhibition rate (%), 10^-7 M” value in the data set on steroid 5α-reductase stood at 74%.

`CCCCC(c1ccccc1)n1ccc2cc(/C(C)=C/C(=O)Nc3ccccc3OCCCC(=O)O)ccc21` (stereo not drawn) [Compound 42, 4-{2-[3-[1-(α-butylbenzyl)indol-5-yl]isocrotonoylamino]phenoxy}butyric acid]: in the data set with male dd mice, the “Acute toxicity (MLD)” value is reported as more than 300 mg/kg. In the data set with steroid 5α-reductase, the “inhibition rate (%), 10^-7 M” value is 89%.

For `C/C(=C\C(=O)Nc1ccccc1OCCCC(=O)O)c1ccc2c(ccn2C(c2ccccc2)c2ccc(C(F)(F)F)cc2)c1` (stereo not drawn) [Compound 83], the “inhibition rate (%), 10^-7 M” value with steroid 5α-reductase was 90%.

For `C/C(=C\C(=O)Nc1ccccc1OCCCC(=O)O)c1ccc2c(ccn2C(c2ccccc2)c2ccccc2F)c1` (stereo not drawn) [Compound 58, 4-{2-[3-[1-(2-fluorobenzhydryl)indol-5-yl]isocrotonoylamino]phenoxy}butyricacid], the “inhibition rate (%), 10^-7 M” value in the data set on steroid 5α-reductase came to 93%.

As for `CCCC(c1ccccc1C)n1ccc2cc(/C(C)=C/C(=O)Nc3ccccc3OCCCC(=O)O)ccc21` (stereo not drawn) [Compound 78, 4-{2-[3-[1-(2-methyl-α-propylbenzyl)indol-5-yl]isocrotonoylamino]phenoxy}butyric acid], the “inhibition rate (%), 10^-7 M” value in the data set on steroid 5α-reductase is recorded as 94%.

In the case of `C/C(=C\C(=O)Nc1ccccc1OCCCC(=O)O)c1ccc2c(ccn2C(c2ccc(C)cc2)c2ccc(C)cc2)c1` [Compound 54, 4-{2-[3-[1-(4,4'-dimethylbenzhydryl)indol-5-yl]isocrotonoylamino]phenoxy}butyric acid], in the data set with male dd mice, the “Acute toxicity (MLD)” value is more than 300 mg/kg. Also, the “inhibition rate (%), 10^-7 M” value in the data set on steroid 5α-reductase turned out to be 89%.

Turning to `CCCCC(CC)n1ccc2cc(/C(C)=C/C(=O)Nc3ccccc3OCCCC(=O)O)ccc21` (stereo not drawn) [Compound 18, 4-{2-[3-[1-(1-ethylpentyl)indol-5-yl]isocrotonoylamino]phenoxy}butyric acid], the “Acute toxicity (MLD)” value in the data set with male dd mice is more than 300 mg/kg. Further, the “inhibition rate (%), 10^-7 M” value in the data set with steroid 5α-reductase was found to be 90%.

Turning to `CCCC(CCC)n1ccc2cc(/C(C)=C/C(=O)Nc3ccc(F)cc3OCCCC(=O)O)ccc21` [Compound 67], the “inhibition rate (%), 10^-7 M” value in the data set with steroid 5α-reductase turned out to be 98%.

As to `CCCCC(c1ccccc1C)n1ccc2cc(/C(C)=C/C(=O)Nc3ccccc3OCCCC(=O)O)ccc21` (stereo not drawn) [Compound 79, 4-{2-[3-[1-(α-butyl-2-methylbenzyl)indol-5-yl]isocrotonoylamino]phenoxy}butyric acid], in the data set on steroid 5α-reductase, the “inhibition rate (%), 10^-7 M” value is 90%.

Turning to `CCCC(CCC)n1ccc2cc(/C(=C/C(=O)Nc3ccc(F)cc3OCCCC(=O)O)CC)ccc21` [Compound 89, 4-{2-[3-[1-(1-propylbutyl)indol-5-yl]-cis-2-pentenoylamino]-5-fluorophenoxy}butyric acid], the “inhibition rate (%), 10^-7 M” value in the data set with steroid 5α-reductase is 95%.

On to `CCC(C)n1ccc2cc(/C(C)=C/C(=O)Nc3ccccc3OCCCC(=O)O)ccc21` (stereo not drawn) [Compound 15, 4-{2-[3-[1-(1-methylpropyl)indol-5-yl]isocrotonoylamino]phenoxy}butyric acid], for which the “Acute toxicity (MLD)” value with male dd mice was more than 300 mg/kg.

On to `CCCCC(CCC)n1ccc2cc(/C(=C/C(=O)Nc3ccc(F)cc3OCCCC(=O)O)CC)ccc21` (stereo not drawn) [Compound 91, 4-{2-[3-[1-(1-propylpentyl)indol-5-yl]-cis-2-pentenoylamino]-5-fluorophenoxy}butyric acid], for which the “inhibition rate (%), 10^-7 M” value in the data set on steroid 5α-reductase is given as 98%.

As for `C/C(=C\C(=O)Nc1ccccc1OCCCC(=O)O)c1ccc2c(ccn2C(c2ccccc2)c2cccnc2)c1` (stereo not drawn) [Compound 84], the “inhibition rate (%), 10^-7 M” value in the data set on steroid 5α-reductase was 66%.

As to `CC/C(=C\C(=O)Nc1ccccc1OCCCC(=O)O)c1ccc2c(ccn2C(CC(C)C)CC(C)C)c1` [Compound 92, 4-{2-[3-[1-[3-methyl-1-(2-methylpropyl)butyl]indol-5-yl]-cis-2-pentenoylamino]phenoxy}butyric acid], the “inhibition rate (%), 10^-7 M” value with steroid 5α-reductase is 91%.

For `C/C(=C\C(=O)Nc1ccccc1OCCCC(=O)O)c1ccc2c(ccn2C(c2ccccc2)c2ccc(F)cc2)c1` (stereo not drawn) [Compound 57, 4-{2-[3-[1-(4-fluorobenzhydryl)indol-5-yl]isocrotonoylamino]phenoxy}butyricacid], the “inhibition rate (%), 10^-7 M” value with steroid 5α-reductase is 92%.

For `CCCCC(CCC)n1ccc2cc(/C(=C/C(=O)Nc3ccccc3OCCCC(=O)O)CC)ccc21` (stereo not drawn) [Compound 90, 4-{2-[3-[1-(1-propylpentyl)indol-5-yl]-cis-2-pentenoylamino]phenoxy}butyricacid], the “inhibition rate (%), 10^-7 M” value in the data set with steroid 5α-reductase is 79%.

In the case of `CCC(c1ccccc1)n1ccc2cc(/C(C)=C/C(=O)Nc3ccccc3OCCCC(=O)O)ccc21` (stereo not drawn) [Compound 40, 4-{2-[3-[1-(α-ethylbenzyl)indol-5-yl]isocrotonoylamino]phenoxy}butyric acid], the “inhibition rate (%), 10^-7 M” value with steroid 5α-reductase was 78%.

With `COc1ccc(C(c2ccc(OC)cc2)n2ccc3cc(/C(C)=C/C(=O)Nc4ccccc4OCCCC(=O)O)ccc32)cc1` [Compound 60, 4-{2-[3-[1-(4,4-dimethoxybenzhydryl)indol-5-yl]isocrotonoylamino]phenoxy}butyric acid], the “inhibition rate (%), 10^-7 M” value with steroid 5α-reductase amounted to 87%.

Take `CCCC(CCC)n1ccc2cc(/C(=C/C(=O)Nc3ccccc3OCCCC(=O)O)CC)ccc21` [Compound 88, 4-{2-[3-[1-(1-propylbutyl)indol-5-yl]-cis-2-pentenoylamino]phenoxy}butyric acid]: in the data set on steroid 5α-reductase, the “inhibition rate (%), 10^-7 M” value is recorded as 95%.

As for `C/C(=C\C(=O)Nc1ccccc1OCCCC(=O)O)c1ccc2c(ccn2C(C)c2ccccc2)c1` (stereo not drawn) [Compound 38, 4-{2-[3-[1-(α-methylbenzyl)indol-5-yl]isocrotonoylamino]phenoxy}butyric acid], in the data set with steroid 5α-reductase, the “inhibition rate (%), 10^-7 M” value is 78%.

Consider `CCCC(CC)n1ccc2cc(/C(C)=C/C(=O)Nc3ccccc3OCCCC(=O)O)ccc21` (stereo not drawn) [Compound 68, 4-{2-[3-[1-(1-ethylbutyl)indol-5-yl]isocrotonoylamino]phenoxy}butyric acid], for which the “inhibition rate (%), 10^-7 M” value with steroid 5α-reductase was 92%.

Regarding `C/C(=C\C(=O)Nc1ccccc1OCCCC(=O)O)c1ccc2c(ccn2C(CC(C)C)c2ccccc2)c1` (stereo not drawn) [Compound 77, 4-{2-[3-[1-[α-(2-methyl)-propylbenzyl]indol-5-yl]isocrotonoylamino]phenoxy}butyric acid], the “inhibition rate (%), 10^-7 M” value in the data set on steroid 5α-reductase worked out at 97%.

For the compound “4-{2-[3-[1-(1-propylbutyl)indol-5-yl]isocrotonoyl amino]phenoxy}butyric acid [Compound 19]”, the “inhibition rate (%), 10^-7 M” value in the data set on steroid 5α-reductase worked out at 94%.

With `C/C(=C\C(=O)Nc1ccc(F)cc1OCCCC(=O)O)c1ccc2c(ccn2C(c2ccccc2)c2ccccc2)c1` [Compound 48, 4-{2-[3-(1-benzhydrylindol-5-yl)isocrotonoylamino]-5-fluorophenoxy}butyric acid], in the data set with steroid 5α-reductase, the “inhibition rate (%), 10^-7 M” value is listed as 93%.

As to `C/C(=C\C(=O)Nc1ccccc1OCCCC(=O)O)c1ccc2c(ccn2C(c2ccccc2)c2ccccn2)c1` (stereo not drawn) [Compound 63, 4-{2-[3-[1-[phenyl-(2-pyridyl)methyl]indol-5-yl]isocrotonoylamino]phenoxy}butyric acid], in the data set on steroid 5α-reductase, the “inhibition rate (%), 10^-7 M” value is 72%.

For `CC/C(=C\C(=O)Nc1ccccc1OCCCC(=O)O)c1ccc2c(ccn2C(c2ccc(F)cc2)c2ccc(F)cc2)c1` [Compound 94, 4-{2-[3-[1-(4,4'-difluorobenzhydryl)indol-5-yl]-cis-2-pentenoylaminmo]phenoxy}butyric acid], in the data set on steroid 5α-reductase, the “inhibition rate (%), 10^-7 M” value is 97%.

For the compound `C/C(=C\C(=O)Nc1ccccc1OCCCC(=O)O)c1ccc2c(ccn2C(C)CCCC(C)C)c1` (stereo not drawn) [Compound 76, 4-{2-[3-[1-(1,5-dimethylhexyl)indol-5-6l]isocrotonoylamino]phenoxy}butyric acid], the “inhibition rate (%), 10^-7 M” value in the data set with steroid 5α-reductase came to 70%.

Consider `CCCC(C)C(C)n1ccc2cc(/C(C)=C/C(=O)Nc3ccccc3OCCCC(=O)O)ccc21` (stereo not drawn) [Compound 22, 4-{2-[3-[1-(1,2-dimethylpentyl)indol-5-yl]isocrotonoylamino]phenoxy}butyric acid], for which the “inhibition rate (%), 10^-7 M” value with steroid 5α-reductase is 70%.

`CC/C(=C\C(=O)Nc1ccccc1OCCCC(=O)O)c1ccc2c(ccn2C(c2ccccc2)c2ccccc2)c1` [Compound 93, 4-{2-[3-(1-benzhydrylindol-5-yl)-cis-2-pentenoylamino]phenoxy}butyric acid]: the “inhibition rate (%), 10^-7 M” value with steroid 5α-reductase was 94%.

Consider `C/C(=C\C(=O)Nc1ccccc1OCCCC(=O)O)c1ccc2c(ccn2C(c2ccc(F)cc2)c2ccc(F)cc2)c1` [Compound 59, 4-{2-[3-[1-(4,4'-difluorobenzhydryl)indol-5-yl]isocrotonoylamino]phenoxy}butyric acid], for which the “inhibition rate (%), 10^-7 M” value with steroid 5α-reductase is 92%.
